For orientation: MIC means the smallest concentration in the dilution series that meets the test's criterion for growth inhibition. Higher therefore signals a less susceptible organism.

What all share (assay): ≥ marks a high value that may be exact or a test limit, other limits are often not marked, values filed in µg/mL are converted to µM
Assay [1] has as its system Streptococcus mutans UA159.
Assay [2] relates to Streptococcus sanguinis ATCC 10556.
Assay [3] deals with Streptococcus sobrinus ATCC 6715.
Assay [4] relates to Escherichia coli D31.
For assay [5], the system named is Listeria fleischmannii DSM 24998.
Assay [6] relates to Listeria grayi DSM 20601.
The subject of assay [7] is Listeria monocytogenes DSM 20600.
Assay [8] relates to Micrococcus luteus DSM 20030.
In assay [9] the test system is Bacillus subtilis.
The subject of assay [10] is Escherichia coli HB101.
Assay [11] has as its system Pseudomonas aeruginosa.
Assay [12] deals with Salmonella typhimurium.
The subject of assay [13] is Staphylococcus aureus.
Assay [14] relates to Candida albicans ATCC 36232.
Assay [15] deals with Escherichia coli ATCC 2592.
The test system of assay [16] is Micrococcus luteus ATCC 9341.
Assay [17] has as its system Pseudomonas aeruginosa ATCC 9027.
In assay [18] the test system is Staphylococcus aureus 1550.
Assay [19] relates to Staphylococcus aureus ATCC 6538.
Assay [20] concerns Bacillus subtilis BGSC 1A1.
Assay [21] relates to Escherichia coli ATCC 25922.
Assay [22] concerns Klebsiella pneumoniae.
Assay [23] relates to Mycobacterium tuberculosis mc2-6020.
Assay [24] relates to Mycobacterium tuberculosis mc2-6230.
Assay [25] relates to Pseudomonas aeruginosa ATCC 27853.
Assay [26] deals with Staphylococcus aureus ATCC 25923.
Assay [27] deals with Streptococcus agalactiae.
In assay [28] the test system is Streptococcus mutans.
In assay [29] the test system is Streptococcus pneumoniae ATCC 49619.
In assay [30] the test system is Streptococcus pyogenes.
Assay [31] deals with Candida albicans ATCC 64550.
The test system of assay [32] is Candida albicans ATCC 90028.
Assay [33] relates to Staphylococcus aureus ATCC 29737.
In assay [34] the test system is Staphylococcus aureus USA 100.
Assay [35] deals with Staphylococcus aureus USA 300.
For assay [36], the system named is Staphylococcus epidermidis ATCC 12228.
Assay [37] relates to Candida albicans C627.
Assay [38] deals with Enterococcus faecium mic80.
Assay [39] relates to Escherichia coli ESBL 63103.
Assay [40] concerns Pseudomonas aeruginosa 213.
Assay [41] relates to Pseudomonas aeruginosa H103.
The subject of assay [42] is Pseudomonas aeruginosa LES400.
Assay [43] deals with Staphylococcus aureus C623.
The test system of assay [44] is Mycobacterium tuberculosis CSU87.
Assay [45] has as its system Mycobacterium tuberculosis H37Rv.

SMILES strings stand for the structures. Values after ≈ are worked out from the molar mass of the structure shown.

On to `NCCCC[C@H](NC(=O)[C@H](Cc1c[nH]c2ccccc12)NC(=O)[C@H](CCCCN)NC(=O)[C@H](CCCCN)NC(=O)[C@H](Cc1ccccc1)NC(=O)[C@H](Cc1ccccc1)NC(=O)[C@H](CCCCN)NC(=O)[C@H](CCCCN)NC(=O)[C@H](Cc1ccccc1)NC(=O)[C@H](Cc1ccccc1)NC(=O)[C@H](CCCCN)NC(=O)[C@@H](N)Cc1ccccc1)C(=O)O` [FKFFKKFFKKWK], for which the minimal inhibitory concentration (MIC) in assay [1] worked out at 9.36 µM (≈ 16 µg/mL); in assay [2], 18.7 µM (≈ 32 µg/mL); in assay [3] it was 18.7 µM (≈ 32 µg/mL).

Regarding `CC[C@H](C)[C@H](NC(=O)[C@H](C)NC(=O)[C@H](CCCCN)NC(=O)[C@H](CCCCN)NC(=O)[C@@H](NC(=O)CNC(=O)[C@H](CCC(=O)O)NC(=O)[C@H](CC(C)C)NC(=O)[C@H](CC(C)C)NC(=O)[C@H](CCCCN)NC(=O)CNC(=O)[C@H](Cc1c[nH]c2ccccc12)NC(=O)[C@H](Cc1ccccc1)NC(=O)CN)C(C)C)C(N)=O` [GFWGKLLEGVKKAI], the MIC amounted to 15 µM (≈ 23.2 µg/mL) in assay [4]; 15 µM (≈ 23.2 µg/mL) in [5]; 8 µM (≈ 12.4 µg/mL) in [6]; 15 µM (≈ 23.2 µg/mL) in assay [7]; 8 µM (≈ 12.4 µg/mL) in [8].

Take `CC[C@H](C)[C@H](NC(=O)[C@@H](NC(=O)[C@@H]1CCCN1C(=O)[C@@H](NC(=O)[C@@H]1CCCN1C(=O)[C@H](CCCCN)NC(=O)[C@H](CCCCN)NC(=O)[C@H](CO)NC(=O)CN)C(C)C)[C@@H](C)CC)C(=O)N[C@@H](Cc1ccc(O)cc1)C(=O)N[C@H]1CSSC[C@@H](C(=O)N[C@@H](CCC(N)=O)C(=O)N[C@@H](CCCN=C(N)N)C(=O)N[C@@H](CCSC)C(=O)O)NC(=O)[C@H](CCCCN)NC(=O)CNC(=O)[C@H](CCCN=C(N)N)NC(=O)[C@H](CCCN=C(N)N)NC(=O)[C@H](CC(N)=O)NC1=O` [GSKKPVPIIYCNRRGKCQRM]: the MIC was determined as 5.2 µM (≈ 12.1 µg/mL) in assay [9]; 0.64 µM (≈ 1.49 µg/mL) in assay [10]; 2.6 µM (≈ 6.07 µg/mL) in assay [11]; 1.3 µM (≈ 3.03 µg/mL) in [12]; 10.4 µM (≈ 24.3 µg/mL) in [13].

In the case of `CC(C)[C@H](NC(=O)[C@H](CCCCN)NC(=O)[C@H](Cc1ccccc1)NC(=O)[C@@H](NC(=O)[C@@H](NC(=O)[C@H](CCCCN)NC(=O)[C@@H](N)Cc1cnc[nH]1)C(C)C)C(C)C)C(=O)N[C@@H](CCCCN)C(=O)N[C@@H](Cc1ccccc1)C(=O)N[C@@H](Cc1cnc[nH]1)C(=O)O` [HKVVFKVKFH], the MIC is at least 78.8 µM in [14]; 15 µM (≈ 19 µg/mL) in assay [15]; 7.88 µM (≈ 10 µg/mL) in assay [16]; 8.67 µM (≈ 11 µg/mL) in assay [17]; at least 49.7 µM in [18]; 12.6 µM (≈ 16 µg/mL) in assay [19].

Take `CC[C@H](C)[C@H](N)C(=O)N[C@@H](CC(C)C)C(=O)N[C@@H](CO)C(=O)N[C@@H](CC(C)C)C(=O)N[C@@H](CCCN=C(N)N)C(=O)N[C@@H](Cc1c[nH]c2ccccc12)C(=O)N[C@@H](CCCN=C(N)N)C(=O)N[C@@H](Cc1c[nH]c2ccccc12)C(=O)N[C@@H](Cc1c[nH]c2ccccc12)C(=O)N[C@@H](CCCCN)C(=O)N[C@@H](Cc1c[nH]c2ccccc12)C(=O)N[C@@H](CCCCN)C(=O)N[C@@H](CCCCN)C(=O)O` [ILSLRWRWWKWKK]: the MIC was 2 µM (≈ 3.77 µg/mL) in assay [20]; 8 µM (≈ 15.1 µg/mL) in [21]; 32 µM (≈ 60.4 µg/mL) in [22]; 4 µM (≈ 7.55 µg/mL) in assay [23]; at least 32 µM in assay [24]; 32 µM (≈ 60.4 µg/mL) in assay [25]. The minimum inhibitory concentration (MIC) in assay [26] is 68 µM (≈ 128 µg/mL); in assay [27], 4 µM (≈ 7.55 µg/mL); in [28] it was 4 µM (≈ 7.55 µg/mL); in assay [29], at least 32 µM; in assay [30] it was 4 µM (≈ 7.55 µg/mL).

As to `CC[C@H](C)[C@H](N)C(=O)N[C@@H](CCCN=C(N)N)C(=O)N[C@H](C(=O)N[C@@H](CCCN=C(N)N)C(=O)N[C@H](C(=O)N[C@@H](CCCN=C(N)N)C(=O)N[C@H](C(=O)N[C@@H](CCCN=C(N)N)C(N)=O)[C@@H](C)CC)[C@@H](C)CC)[C@@H](C)CC` [IRIRIRIR], the MIC amounted to 12.5 µM (≈ 13.7 µg/mL) in assay [31]; 6.25 µM (≈ 6.84 µg/mL) in [32]; 7.12 µM (≈ 7.79 µg/mL) in assay [21]; 6.25 µM (≈ 6.84 µg/mL) in [17]; 28.6 µM (≈ 31.3 µg/mL) in [33]; 6.25 µM (≈ 6.84 µg/mL) in assay [34]. The results for the minimal inhibitory concentration (MIC) in assay [35] and in [36] were 6.25 µM (≈ 6.84 µg/mL) and 3.56 µM (≈ 3.9 µg/mL), respectively.

On to `CC[C@H](C)[C@H](NC(=O)[C@H](CCCCN)NC(=O)[C@H](Cc1c[nH]c2ccccc12)NC(=O)[C@H](Cc1c[nH]c2ccccc12)NC(=O)[C@@H](N)CCCCN)C(=O)N[C@@H](Cc1c[nH]c2ccccc12)C(=O)N[C@@H](CCCN=C(N)N)C(=O)N[C@@H](Cc1c[nH]c2ccccc12)C(=O)N[C@@H](CCCN=C(N)N)C(=O)O` [KWWKIWRWR], for which the minimal inhibitory concentration (MIC) in assay [37] is 5.54 µM (≈ 8 µg/mL); in [38], 22.1 µM (≈ 32 µg/mL); in [39] it was at least 44.3 µM; in assay [40], at least 88.6 µM; in [41], 22.1 µM (≈ 32 µg/mL); in assay [42], at least 44.3 µM. Further, the MIC in assay [26] and in assay [43] was 11.1 µM (≈ 16 µg/mL) in each case.

Take `CSCC[C@H](NC(=O)[C@H](CCCCN)NC(=O)[C@H](CCCCN)NC(=O)[C@H](CC(C)C)NC(=O)[C@H](CC(C)C)NC(=O)[C@H](CCCCN)NC(=O)[C@H](CCCCN)NC(=O)[C@H](CC(C)C)NC(=O)[C@@H](N)CC(C)C)C(N)=O` [LLKKLLKKM]: the MIC in assay [44] was at least 112 µM; in assay [45], at least 449 µM.

The record behind these values is DBAASP.
